Patent US11465972B2, “Inhibitors of oxidized low-density lipoprotein receptor 1 and methods of use thereof” (United States Government as represented by the Department …, priority 2015, dated 2022)
“And” between values parts separate entries of the source, which are not always exact repeats. Equal values may be shown once.

How the values were obtained:
[1] = Liver microsomal stability, human; assay type: in vitro ADME; settings: human liver microsomes
Procedure: (§1) Metabolic stability or clearance is recognized as one of the main determinants of drug concentration in blood. The metabolic stability of Mol-5 was tested using liver microsomes form mice and humans to obtain stability ranking and intrinsic clearance.

ECs = assay: Second dose response of ox-LDL uptake by ECs (lower concentrations); assay type: cell-based; settings: second dose response curve, estimated
Procedure: FIG. 6A depicts the IC50 for Mol-5. The x-axis represents Mol-5 concentration (nM) and the y-axis represents ox-LDL uptake by ECs. FIG. 6B depicts the ox-LDL uptake with Mol-5 inhibition.
For further characterization, human endothelial cells and fluorescently-labeled Dil-ox-LDL were used for measuring initiation of atherogenic process based on interaction of vascular wall with ox-LDL. Ox-LDL uptake by human umbilical vein endothelial cells (HUVECs) was measured after exposure to 200 nM of each compound using flow cytometry. […] The dose response to modulation of ox-LDL uptake by Mol-5 (0, 20, 200 and 2000 nM) was also measured in CHO cells overexpressing human LOX-1. […] A second dose response curve was conducted to narrow in on the effect of lower concentrations of Mol-5 on ox-LDL uptake (FIG. 6A). Using this information the EC50 was estimated to be […] (FIG. 6B).

human LOX-1 = human LOX-1 (Homo sapiens, UniProt P78380); assay: Dil-ox-LDL uptake in CHO cells overexpressing human LOX-1; assay type: cell-based; settings: 0, 20, 200, 2000 nM, read-out: IC50, inhibition of Dil-ox-LDL uptake
Procedure: FIG. 3A, FIG. 3B, FIG. 3C and FIG. 3D depict the inhibitory effect of the lead compounds on Dil-ox-LDL uptake by HUVECs and CHO cells (measured by flow cytometry) and the effect of the lead compounds on ox-LDL-induced LOX-1 mRNA and protein expression. (FIG. 3A) (Upper Panel) Flow cytometry measurements using HUVECs in the presence of the five lead compounds (Mol-1-Mol-5), each a at 200 nM concentration. (Lower Panel) The percentage of internalized ox-LDL. Graphs show data as mean (±SD); n=4. *P<0.01 or <0.05 vs. control. (FIG. 3B) IC50 value for Mol-5. IC50 value (in nM) is based on inhibition of Dil-ox-LDL uptake in CHO cells overexpressing human LOX-1. Graphs show data as mean (±SD); n=5. *P<0.01 or <0.05 vs. control. (FIG. 3C) Western blotting assay showing LOX-1 protein expression in HUVECs following incubation with 200 nM Mol-1 to Mol-5 for 30 min, and subsequently exposure to 5 μg/mL ox-LDL for 6 hours. […]
For further characterization, human endothelial cells and fluorescently-labeled Dil-ox-LDL were used for measuring initiation of atherogenic process based on interaction of vascular wall with ox-LDL. Ox-LDL uptake by human umbilical vein endothelial cells (HUVECs) was measured after exposure to 200 nM of each compound using flow cytometry. […] The dose response to modulation of ox-LDL uptake by Mol-5 (0, 20, 200 and 2000 nM) was also measured in CHO cells overexpressing human LOX-1. […]

[2] = Liver microsomal stability, mouse; assay type: in vitro ADME; settings: mouse liver microsomes
Procedure: as §1

In the case of `Cc1cc(C)n(CC(O)COc2ccccc2)n1` (centres unmarked) [Mol-5, 1-(3,5-dimethyl-1H-pyrazol-1-yl)-3-phenoxypropan-2-ol], the half-life [1] is reported as 55.3 ± 2.2 min, the “metabolic stability (in words)” value [1] is reported as “reasonable stability” and the microsomal CLint [1] is reported as 25.1 ± 1 µL/min/mg. For the same molecule, the EC50 (ECs) was 64 nM, the IC50 (human LOX-1) was ~200 nM and 200 nM and the half-life [2] was 1.7 ± 0.1 min. The “metabolic stability (in words)” value [2] was “low stability” and the microsomal CLint [2] was 836 ± 40.8 µL/min/mg.
